Measured values taken from the kinase profiling compilation of Christmann-Franck et al. (2016).

Key:
Assay in all cases: Caliper, Mobility shift assay off-chip
SRC (human) = SRC (human) (UniProt P12931)
CDC7 (human) = CDC7 (human) (UniProt O00311)
IKBKB (human) = IKBKB (human) (UniProt O14920)
DYRK2 (human) = DYRK2 (human) (UniProt Q92630)
NEK7 (human) = NEK7 (human) (UniProt Q8TDX7)
ERBB4 (human) = ERBB4 (human) (UniProt Q15303)
MAPK3 (human) = MAPK3 (human) (UniProt P27361)
MAPKAPK3 (human) = MAPKAPK3 (human) (UniProt Q16644)
DCLK2 (human) = DCLK2 (human) (UniProt Q8N568)
CAMK2A (human) = CAMK2A (human) (UniProt Q9UQM7)
CAMK2A (human), sequence (Q9UQM7 whole entry, looked up): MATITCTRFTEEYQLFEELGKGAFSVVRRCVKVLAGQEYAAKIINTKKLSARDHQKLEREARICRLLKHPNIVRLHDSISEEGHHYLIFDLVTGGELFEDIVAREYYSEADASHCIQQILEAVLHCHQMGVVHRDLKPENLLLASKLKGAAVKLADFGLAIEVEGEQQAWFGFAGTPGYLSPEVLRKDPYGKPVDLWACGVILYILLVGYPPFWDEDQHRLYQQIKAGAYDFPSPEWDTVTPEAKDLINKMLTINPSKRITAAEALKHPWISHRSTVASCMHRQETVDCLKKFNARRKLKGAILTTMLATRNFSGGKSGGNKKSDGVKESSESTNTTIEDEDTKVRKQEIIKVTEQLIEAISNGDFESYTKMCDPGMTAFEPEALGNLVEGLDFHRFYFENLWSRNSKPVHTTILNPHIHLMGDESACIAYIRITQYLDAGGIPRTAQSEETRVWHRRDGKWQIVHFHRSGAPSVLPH

SLK (human) = SLK (human) (UniProt Q9H2G2)
STK38 (human) = STK38 (human) (UniProt Q15208)
STK38 (human), sequence (Q15208 whole entry, looked up): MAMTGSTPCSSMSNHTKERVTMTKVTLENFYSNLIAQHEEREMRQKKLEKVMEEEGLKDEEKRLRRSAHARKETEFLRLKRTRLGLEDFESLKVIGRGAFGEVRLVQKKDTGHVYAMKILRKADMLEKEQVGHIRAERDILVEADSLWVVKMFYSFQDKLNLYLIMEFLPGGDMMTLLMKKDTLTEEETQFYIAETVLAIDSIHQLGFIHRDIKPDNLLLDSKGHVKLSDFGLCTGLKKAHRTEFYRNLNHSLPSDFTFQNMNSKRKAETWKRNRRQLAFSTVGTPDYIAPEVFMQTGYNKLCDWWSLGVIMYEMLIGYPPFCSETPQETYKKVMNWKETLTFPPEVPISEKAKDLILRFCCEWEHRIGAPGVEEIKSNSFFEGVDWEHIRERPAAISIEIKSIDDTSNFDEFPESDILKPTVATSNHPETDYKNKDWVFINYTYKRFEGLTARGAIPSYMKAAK

NTRK3 (human) = NTRK3 (human) (UniProt Q16288)
RPS6KA1 KD1 KD2 (human) = RPS6KA1 KD1 KD2 (human) (UniProt Q15418)
CDK5 (human) = CDK5 (human) (UniProt Q00535)
KDR (human) = KDR (human) (UniProt P35968)
EPHA8 (human) = EPHA8 (human) (UniProt P29322)
PRKCI (human) = PRKCI (human) (UniProt P41743)
PRKCI (human), sequence (P41743 whole entry, looked up): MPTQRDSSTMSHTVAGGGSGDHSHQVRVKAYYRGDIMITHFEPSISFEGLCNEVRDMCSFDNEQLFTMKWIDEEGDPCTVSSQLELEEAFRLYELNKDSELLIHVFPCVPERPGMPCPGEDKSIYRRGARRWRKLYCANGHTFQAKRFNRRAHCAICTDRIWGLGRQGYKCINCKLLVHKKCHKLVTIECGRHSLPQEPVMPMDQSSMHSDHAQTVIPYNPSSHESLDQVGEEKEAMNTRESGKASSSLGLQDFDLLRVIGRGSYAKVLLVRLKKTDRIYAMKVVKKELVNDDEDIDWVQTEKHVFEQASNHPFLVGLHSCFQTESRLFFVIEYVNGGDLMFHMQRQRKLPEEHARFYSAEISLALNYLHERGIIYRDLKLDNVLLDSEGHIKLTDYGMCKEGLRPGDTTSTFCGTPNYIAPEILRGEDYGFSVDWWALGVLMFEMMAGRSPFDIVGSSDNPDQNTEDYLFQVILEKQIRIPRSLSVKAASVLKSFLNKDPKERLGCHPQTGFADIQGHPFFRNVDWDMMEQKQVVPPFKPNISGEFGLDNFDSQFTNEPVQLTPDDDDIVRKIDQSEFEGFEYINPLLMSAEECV

SRMS (human) = SRMS (human) (UniProt Q9H3Y6)
LATS2 (human) = LATS2 (human) (UniProt Q9NRM7)
CLK3 (human) = CLK3 (human) (UniProt P49761)
WNK3 (human) = WNK3 (human) (UniProt Q9BYP7)
WNK3 (human), sequence (Q9BYP7 whole entry, looked up): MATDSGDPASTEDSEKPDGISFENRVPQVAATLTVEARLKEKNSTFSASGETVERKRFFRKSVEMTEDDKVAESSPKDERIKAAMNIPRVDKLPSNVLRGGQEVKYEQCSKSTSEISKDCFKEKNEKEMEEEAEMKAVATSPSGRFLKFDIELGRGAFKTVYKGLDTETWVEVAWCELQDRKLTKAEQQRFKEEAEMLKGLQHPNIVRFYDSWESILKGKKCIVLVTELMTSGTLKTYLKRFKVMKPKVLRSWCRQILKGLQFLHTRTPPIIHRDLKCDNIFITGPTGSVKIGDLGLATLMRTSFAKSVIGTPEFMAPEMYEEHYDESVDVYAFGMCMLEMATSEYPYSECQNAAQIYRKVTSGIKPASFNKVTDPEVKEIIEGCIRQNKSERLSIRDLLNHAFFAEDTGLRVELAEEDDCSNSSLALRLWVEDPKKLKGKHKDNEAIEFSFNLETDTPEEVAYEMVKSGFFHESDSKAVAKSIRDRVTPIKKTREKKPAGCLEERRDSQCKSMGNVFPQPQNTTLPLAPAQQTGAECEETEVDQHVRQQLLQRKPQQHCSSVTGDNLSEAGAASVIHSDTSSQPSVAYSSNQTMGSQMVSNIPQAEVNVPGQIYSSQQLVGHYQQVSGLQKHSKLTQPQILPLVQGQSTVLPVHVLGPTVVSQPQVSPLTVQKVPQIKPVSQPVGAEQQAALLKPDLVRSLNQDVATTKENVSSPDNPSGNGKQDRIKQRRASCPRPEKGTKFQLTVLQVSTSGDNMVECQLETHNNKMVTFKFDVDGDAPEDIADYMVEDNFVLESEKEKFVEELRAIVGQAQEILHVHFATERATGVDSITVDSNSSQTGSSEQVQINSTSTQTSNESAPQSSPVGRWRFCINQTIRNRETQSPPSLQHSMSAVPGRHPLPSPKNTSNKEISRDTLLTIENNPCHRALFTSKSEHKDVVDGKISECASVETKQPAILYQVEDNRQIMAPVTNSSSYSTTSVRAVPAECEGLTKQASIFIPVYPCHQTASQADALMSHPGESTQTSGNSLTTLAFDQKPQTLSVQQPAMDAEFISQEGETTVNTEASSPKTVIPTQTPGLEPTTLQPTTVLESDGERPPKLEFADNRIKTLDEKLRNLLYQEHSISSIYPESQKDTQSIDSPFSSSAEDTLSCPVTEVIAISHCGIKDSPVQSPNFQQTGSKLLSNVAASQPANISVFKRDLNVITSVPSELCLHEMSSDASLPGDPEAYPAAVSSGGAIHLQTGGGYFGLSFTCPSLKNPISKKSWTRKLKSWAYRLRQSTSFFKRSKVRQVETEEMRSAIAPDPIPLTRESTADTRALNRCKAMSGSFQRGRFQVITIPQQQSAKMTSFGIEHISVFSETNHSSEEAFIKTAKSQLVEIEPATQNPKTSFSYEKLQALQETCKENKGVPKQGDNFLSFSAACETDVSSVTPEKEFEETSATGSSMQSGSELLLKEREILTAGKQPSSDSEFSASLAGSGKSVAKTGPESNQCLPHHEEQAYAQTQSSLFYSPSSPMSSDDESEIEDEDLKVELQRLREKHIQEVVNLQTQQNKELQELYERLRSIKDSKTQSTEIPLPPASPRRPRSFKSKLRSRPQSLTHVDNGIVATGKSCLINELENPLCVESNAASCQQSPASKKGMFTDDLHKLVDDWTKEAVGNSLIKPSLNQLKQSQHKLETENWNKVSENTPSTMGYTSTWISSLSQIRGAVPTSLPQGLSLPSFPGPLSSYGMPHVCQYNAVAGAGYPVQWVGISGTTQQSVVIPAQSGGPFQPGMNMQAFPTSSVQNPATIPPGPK

AXL (human) = AXL (human) (UniProt P30530)
CHUK (human) = CHUK (human) (UniProt O15111)
EEF2K (human) = EEF2K (human) (UniProt O00418)
BRSK2 (human) = BRSK2 (human) (UniProt Q8IWQ3)
BRSK2 (human), sequence (Q8IWQ3 whole entry, looked up): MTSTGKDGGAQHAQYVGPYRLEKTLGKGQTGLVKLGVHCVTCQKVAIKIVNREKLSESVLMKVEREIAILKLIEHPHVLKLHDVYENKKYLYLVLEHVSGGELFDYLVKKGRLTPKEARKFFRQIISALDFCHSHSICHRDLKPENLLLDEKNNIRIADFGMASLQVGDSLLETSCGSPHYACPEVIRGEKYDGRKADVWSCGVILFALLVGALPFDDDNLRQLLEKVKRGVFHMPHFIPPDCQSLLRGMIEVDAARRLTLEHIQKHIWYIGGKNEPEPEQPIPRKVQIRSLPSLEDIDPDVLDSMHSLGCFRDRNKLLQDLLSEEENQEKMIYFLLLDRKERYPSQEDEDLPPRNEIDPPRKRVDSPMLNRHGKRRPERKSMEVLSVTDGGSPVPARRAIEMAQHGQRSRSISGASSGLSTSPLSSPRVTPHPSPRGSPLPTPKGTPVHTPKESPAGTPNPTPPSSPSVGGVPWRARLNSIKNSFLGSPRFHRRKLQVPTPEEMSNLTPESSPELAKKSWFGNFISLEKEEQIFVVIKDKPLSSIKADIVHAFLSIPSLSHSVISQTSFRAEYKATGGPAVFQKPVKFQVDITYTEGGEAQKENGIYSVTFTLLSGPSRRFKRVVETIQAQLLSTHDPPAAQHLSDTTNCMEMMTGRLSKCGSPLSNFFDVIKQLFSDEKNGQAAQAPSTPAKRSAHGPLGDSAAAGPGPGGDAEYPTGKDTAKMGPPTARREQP

CHEK1 (human) = CHEK1 (human) (UniProt O14757)
MELK (human) = MELK (human) (UniProt Q14680)
CAMK4 (human) = CAMK4 (human) (UniProt Q16566)
MARK2 (human) = MARK2 (human) (UniProt Q7KZI7)
RPS6KB1 (human) = RPS6KB1 (human) (UniProt P23443)
CLK2 (human) = CLK2 (human) (UniProt P49760)
CLK2 (human), sequence (P49760 whole entry, looked up): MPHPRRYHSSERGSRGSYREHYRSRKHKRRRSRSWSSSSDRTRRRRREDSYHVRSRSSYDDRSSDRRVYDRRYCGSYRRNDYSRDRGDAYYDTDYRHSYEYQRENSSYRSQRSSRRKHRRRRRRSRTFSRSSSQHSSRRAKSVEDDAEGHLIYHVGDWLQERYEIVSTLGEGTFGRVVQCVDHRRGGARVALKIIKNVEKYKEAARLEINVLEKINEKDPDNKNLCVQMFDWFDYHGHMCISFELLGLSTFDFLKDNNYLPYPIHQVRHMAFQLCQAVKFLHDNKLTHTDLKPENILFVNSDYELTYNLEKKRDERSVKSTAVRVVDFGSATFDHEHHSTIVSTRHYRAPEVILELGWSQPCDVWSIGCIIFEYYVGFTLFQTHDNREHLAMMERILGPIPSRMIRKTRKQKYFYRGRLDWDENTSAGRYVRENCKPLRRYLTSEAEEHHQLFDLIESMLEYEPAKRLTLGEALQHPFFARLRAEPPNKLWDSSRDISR

CAMK2D (human) = CAMK2D (human) (UniProt Q13557)
CAMK2D (human), sequence (Q13557 whole entry, looked up): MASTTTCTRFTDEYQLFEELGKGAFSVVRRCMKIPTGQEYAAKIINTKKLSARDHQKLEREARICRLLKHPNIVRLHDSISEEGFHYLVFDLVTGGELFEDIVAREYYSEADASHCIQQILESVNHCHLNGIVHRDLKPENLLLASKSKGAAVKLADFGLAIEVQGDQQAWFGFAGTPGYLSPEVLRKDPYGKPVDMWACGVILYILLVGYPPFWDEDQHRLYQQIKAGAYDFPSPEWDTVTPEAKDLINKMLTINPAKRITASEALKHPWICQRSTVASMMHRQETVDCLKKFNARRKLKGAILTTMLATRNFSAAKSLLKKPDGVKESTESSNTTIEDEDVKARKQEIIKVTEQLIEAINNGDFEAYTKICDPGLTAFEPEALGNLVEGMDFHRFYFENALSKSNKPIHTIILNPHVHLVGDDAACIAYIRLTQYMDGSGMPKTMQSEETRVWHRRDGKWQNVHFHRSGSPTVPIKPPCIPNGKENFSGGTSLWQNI

FGFR1 (human) = FGFR1 (human) (UniProt P11362)

COc1cc2c(Oc3ccc4[nH]c(C)cc4c3F)ncnc2cc1OCCCN1CCCC1
Ki (SRC (human)): 83.5 nM
inhibition (SRC (human); compound 0.2 µM): 58.1%
inhibition (CDC7 (human); compound 0.02 µM): -3.4%
inhibition (CDC7 (human); compound 0.2 µM): -0.7%
inhibition (IKBKB (human); compound 0.02 µM): -4%
inhibition (IKBKB (human); compound 0.2 µM): -4.5%
inhibition (DYRK2 (human); compound 0.02 µM): 13.4%
inhibition (DYRK2 (human); compound 0.2 µM): -5.6%
inhibition (NEK7 (human); compound 0.02 µM): -3.6%
inhibition (NEK7 (human); compound 0.2 µM): -4%
inhibition (ERBB4 (human); compound 0.02 µM): 17.2%
inhibition (ERBB4 (human); compound 0.2 µM): 49.8%
inhibition (MAPK3 (human); compound 0.02 µM): -1.5%
inhibition (MAPK3 (human); compound 0.2 µM): -5%
inhibition (MAPKAPK3 (human); compound 0.02 µM): 1.1%
inhibition (MAPKAPK3 (human); compound 0.2 µM): -0.2%
inhibition (DCLK2 (human); compound 0.02 µM): -1.8%
inhibition (DCLK2 (human); compound 0.2 µM): -0.5%
inhibition (CAMK2A (human); compound 0.02 µM): 3.5%
inhibition (CAMK2A (human); compound 0.2 µM): 3.9%
inhibition (SLK (human); compound 0.02 µM): 37.5%
inhibition (SLK (human); compound 0.2 µM): 85%
inhibition (STK38 (human); compound 0.02 µM): 9.6%
inhibition (STK38 (human); compound 0.2 µM): -1.9%
inhibition (NTRK3 (human); compound 0.02 µM): 1.6%
inhibition (NTRK3 (human); compound 0.2 µM): 1.8%
inhibition (RPS6KA1 KD1 KD2 (human); compound 0.02 µM): -3.4%
inhibition (RPS6KA1 KD1 KD2 (human); compound 0.2 µM): -3.3%
inhibition (CDK5 (human); compound 0.02 µM): 0.8%
inhibition (CDK5 (human); compound 0.2 µM): -4.2%
inhibition (KDR (human); compound 0.02 µM): 96.3%
inhibition (KDR (human); compound 0.2 µM): 101%
inhibition (EPHA8 (human); compound 0.02 µM): -3.2%
inhibition (EPHA8 (human); compound 0.2 µM): 4.7%
inhibition (PRKCI (human); compound 0.02 µM): 4.3%
inhibition (PRKCI (human); compound 0.2 µM): 6%
inhibition (SRMS (human); compound 0.02 µM): -0.7%
inhibition (SRMS (human); compound 0.2 µM): -1.7%
inhibition (LATS2 (human); compound 0.02 µM): -7.6%
inhibition (LATS2 (human); compound 0.2 µM): -0.9%
inhibition (CLK3 (human); compound 0.02 µM): 11.9%
inhibition (CLK3 (human); compound 0.2 µM): -4.2%
inhibition (WNK3 (human); compound 0.02 µM): 0.8%
inhibition (WNK3 (human); compound 0.2 µM): -1.1%
inhibition (AXL (human); compound 0.02 µM): 6.9%
inhibition (AXL (human); compound 0.2 µM): 17.7%
inhibition (CHUK (human); compound 0.02 µM): 5.3%
inhibition (CHUK (human); compound 0.2 µM): 5.3%
inhibition (EEF2K (human); compound 0.02 µM): -5.2%
inhibition (EEF2K (human); compound 0.2 µM): 3.1%
inhibition (BRSK2 (human); compound 0.02 µM): -2.3%
inhibition (BRSK2 (human); compound 0.2 µM): 2.8%
inhibition (CHEK1 (human); compound 0.02 µM): -6.2%
inhibition (CHEK1 (human); compound 0.2 µM): -0.1%
inhibition (MELK (human); compound 0.02 µM): 6.6%
inhibition (MELK (human); compound 0.2 µM): 10%
inhibition (CAMK4 (human); compound 0.02 µM): -4%
inhibition (CAMK4 (human); compound 0.2 µM): -0.6%
inhibition (MARK2 (human); compound 0.02 µM): 6.9%
inhibition (MARK2 (human); compound 0.2 µM): 9.2%
inhibition (RPS6KB1 (human); compound 0.02 µM): 8.1%
inhibition (RPS6KB1 (human); compound 0.2 µM): 8.6%
inhibition (CLK2 (human); compound 0.02 µM): 0.3%
inhibition (CLK2 (human); compound 0.2 µM): 1.1%
inhibition (CAMK2D (human); compound 0.02 µM): 3.9%
inhibition (CAMK2D (human); compound 0.2 µM): 3.9%
inhibition (FGFR1 (human); compound 0.02 µM): 52.9%
inhibition (FGFR1 (human); compound 0.2 µM): 91.2%

Cc1ccc(Nc2nccc(N(C)c3ccc4c(C)n(C)nc4c3)n2)cc1S(N)(=O)=O
inhibition (SRC (human); compound 0.02 µM): 8.4%
inhibition (SRC (human); compound 0.2 µM): 42.7%
inhibition (CDC7 (human); compound 0.02 µM): -1.5%
inhibition (CDC7 (human); compound 0.2 µM): -3.3%
inhibition (IKBKB (human); compound 0.02 µM): -3.7%
inhibition (IKBKB (human); compound 0.2 µM): -2.6%
inhibition (DYRK2 (human); compound 0.02 µM): 0.6%
inhibition (DYRK2 (human); compound 0.2 µM): 4.1%
inhibition (NEK7 (human); compound 0.02 µM): -2.9%
inhibition (NEK7 (human); compound 0.2 µM): 0%
inhibition (ERBB4 (human); compound 0.02 µM): 8.4%
inhibition (ERBB4 (human); compound 0.2 µM): 2.6%
inhibition (MAPK3 (human); compound 0.02 µM): -5%
inhibition (MAPK3 (human); compound 0.2 µM): -2.7%
inhibition (MAPKAPK3 (human); compound 0.02 µM): 2.3%
inhibition (MAPKAPK3 (human); compound 0.2 µM): 1.6%
inhibition (DCLK2 (human); compound 0.02 µM): -1.2%
inhibition (DCLK2 (human); compound 0.2 µM): -0.9%
inhibition (CAMK2A (human); compound 0.02 µM): 5.3%
inhibition (CAMK2A (human); compound 0.2 µM): 5.1%
inhibition (SLK (human); compound 0.02 µM): 9%
inhibition (SLK (human); compound 0.2 µM): 12.3%
inhibition (STK38 (human); compound 0.02 µM): 0.1%
inhibition (STK38 (human); compound 0.2 µM): 7.5%
inhibition (NTRK3 (human); compound 0.02 µM): 5.4%
inhibition (NTRK3 (human); compound 0.2 µM): 9.1%
inhibition (RPS6KA1 KD1 KD2 (human); compound 0.02 µM): 0.5%
inhibition (RPS6KA1 KD1 KD2 (human); compound 0.2 µM): 5.4%
inhibition (CDK5 (human); compound 0.02 µM): -0.3%
inhibition (CDK5 (human); compound 0.2 µM): 0.9%
inhibition (KDR (human); compound 0.02 µM): 81.6%
inhibition (KDR (human); compound 0.2 µM): 99.2%
inhibition (EPHA8 (human); compound 0.02 µM): -1.1%
inhibition (EPHA8 (human); compound 0.2 µM): 10.8%
inhibition (PRKCI (human); compound 0.02 µM): 3.4%
inhibition (PRKCI (human); compound 0.2 µM): 2.1%
inhibition (SRMS (human); compound 0.02 µM): 1.1%
inhibition (SRMS (human); compound 0.2 µM): 25.2%
inhibition (LATS2 (human); compound 0.02 µM): -2.1%
inhibition (LATS2 (human); compound 0.2 µM): -0.3%
inhibition (CLK3 (human); compound 0.02 µM): -3.9%
inhibition (CLK3 (human); compound 0.2 µM): 9.6%
inhibition (WNK3 (human); compound 0.02 µM): -0.8%
inhibition (WNK3 (human); compound 0.2 µM): 3.2%
inhibition (AXL (human); compound 0.02 µM): 1.7%
inhibition (AXL (human); compound 0.2 µM): 10.3%
inhibition (CHUK (human); compound 0.02 µM): -1.2%
inhibition (CHUK (human); compound 0.2 µM): 0.9%
inhibition (EEF2K (human); compound 0.02 µM): 2.9%
inhibition (EEF2K (human); compound 0.2 µM): 4.7%
inhibition (BRSK2 (human); compound 0.02 µM): -2.2%
inhibition (BRSK2 (human); compound 0.2 µM): 0.4%
inhibition (CHEK1 (human); compound 0.02 µM): 1.8%
inhibition (CHEK1 (human); compound 0.2 µM): 0.3%
inhibition (MELK (human); compound 0.02 µM): 8.1%
inhibition (MELK (human); compound 0.2 µM): 12.4%
inhibition (CAMK4 (human); compound 0.02 µM): -2.8%
inhibition (CAMK4 (human); compound 0.2 µM): -1.2%
inhibition (MARK2 (human); compound 0.02 µM): 9.3%
inhibition (MARK2 (human); compound 0.2 µM): 12%
inhibition (RPS6KB1 (human); compound 0.02 µM): 11.1%
inhibition (RPS6KB1 (human); compound 0.2 µM): 20.6%
inhibition (CLK2 (human); compound 0.02 µM): 6.2%
inhibition (CLK2 (human); compound 0.2 µM): 7.2%
inhibition (CAMK2D (human); compound 0.02 µM): 4.9%
inhibition (CAMK2D (human); compound 0.2 µM): 4.6%
